This is an account of results in paper PMC7851449, “An extracellular lipase from Amycolatopsis mediterannei is a cutinase with plastic degrading activity” (Computational and Structural Biotechnology Journal, 2021).

The target of this experiment is T1, AML (Amycolatopsis mediterranei lipase) (Amycolatopsis mediterranei, UniProt A0A0H3DES9).
T1 construct: gene AMED_7492; recombinant, pET-49b(+), E. coli BL21(DE3) cytosol; glutathione agarose, tag cut off with PreScission protease
Briefly: p-nitrophenyl ester hydrolysis assay, relative activity. It counts as biochemical. The note with it: 50 mM Tris pH 7.5, 37 °C, 10 min, 20 mM substrate.

T1 sequence (A0A0H3DES9 entry or part of it): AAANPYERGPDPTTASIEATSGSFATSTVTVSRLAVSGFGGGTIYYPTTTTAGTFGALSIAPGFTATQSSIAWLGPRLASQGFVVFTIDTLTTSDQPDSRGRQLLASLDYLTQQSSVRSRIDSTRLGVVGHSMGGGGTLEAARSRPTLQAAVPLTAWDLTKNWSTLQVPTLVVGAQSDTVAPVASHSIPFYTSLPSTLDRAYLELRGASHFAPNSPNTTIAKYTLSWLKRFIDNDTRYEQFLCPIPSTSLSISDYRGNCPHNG

Regarding `CC(=O)Oc1ccc([N+](=O)[O-])cc1` [p-nitrophenyl acetate], the “relative activity (%)” value is recorded as “experimentally low activity of AML observed towards p-nitrophenyl acetate”.
With `CCCCCCCC(=O)Oc1ccc([N+](=O)[O-])cc1` [p-nitrophenyl octanoate], the “relative activity (%)” value (reference substrate for relative activity) is “relative activity (%) was calculated using p-nitrophenyl octanoate (C-8) as the reference, highest activity, substrate”.
